Data reported in patent publication US20240252454A1, “COMPOSITION COMPRISING AN INHIBITOR OF MITOCHONDRIAL TRANSCRIPTION” (LEAD DISCOVERY CENTER GMBH, priority 2021, published 2024).

Test system: A2780
Experiment: CellTiter-GLO (CTG) assay, combinatorial matrix
Type: cell-based

Question: How did the “combination of IMT and PARPi compared to treatment with just the PARPi alone” value (A2780, CTG matrix, 30 μM to 10 nM IMT (3S)-1-[(2R)-2-[4-(2-chloro-4-fluoro-phenyl)-2-oxo-chromen-7-yl]oxypropanoyl]piperidine-3-carboxylic acid + 30 μM to 40 nM of the labelled PARPi) turn out when `O=C(c1cc(Cc2n[nH]c(=O)c3ccccc23)ccc1F)N1CCN(C(=O)C2CC2)CC1` [Olaparib] was run?
Answer: Its value is “advantage of the combination”.

Question: And the activity at 0.04 µM (Homo sapiens, A2780, 72 hours, Olaparib 0.04 μM, IMT (3S)-1-[(2R)-2-[4-(2-chloro-4-fluoro-phenyl)-2-oxo-chromen-7-yl]oxypropanoyl]piperidine-3-carboxylic acid at the μM of c0, untreated control =100%, read-out: Measured residual activity (cellular ATP content))?
Answer: Its activity at 0.04 µM is 99%.

Question: What about the activity at 0.1 µM (Homo sapiens, A2780, 72 hours, Olaparib 0.1 μM, IMT (3S)-1-[(2R)-2-[4-(2-chloro-4-fluoro-phenyl)-2-oxo-chromen-7-yl]oxypropanoyl]piperidine-3-carboxylic acid at the μM of c0, untreated control =100%, read-out: Measured residual activity (cellular ATP content)) of the same molecule?
Answer: The activity at 0.1 µM was 85%.

Question: And the activity at 0.4 µM (Homo sapiens, A2780, 72 hours, Olaparib 0.4 μM, IMT (3S)-1-[(2R)-2-[4-(2-chloro-4-fluoro-phenyl)-2-oxo-chromen-7-yl]oxypropanoyl]piperidine-3-carboxylic acid at the μM of c0, untreated control =100%, read-out: Measured residual activity (cellular ATP content))?
Answer: Its activity at 0.4 µM is 46%.

Question: And the activity at 1.1 µM (Homo sapiens, A2780, 72 hours, Olaparib 1.1 μM, IMT (3S)-1-[(2R)-2-[4-(2-chloro-4-fluoro-phenyl)-2-oxo-chromen-7-yl]oxypropanoyl]piperidine-3-carboxylic acid at the μM of c0, untreated control =100%, read-out: Measured residual activity (cellular ATP content))?
Answer: Its activity at 1.1 µM is 27%.

Question: And the activity at […] (Homo sapiens, A2780, 72 hours, Olaparib 3.3 μM, IMT (3S)-1-[(2R)-2-[4-(2-chloro-4-fluoro-phenyl)-2-oxo-chromen-7-yl]oxypropanoyl]piperidine-3-carboxylic acid at the μM of c0, untreated control =100%, read-out: Measured residual activity (cellular ATP content))?
Answer: The activity at […] was 14%.

Question: And the activity at 10 µM (Homo sapiens, A2780, 72 hours, Olaparib 10 μM, IMT (3S)-1-[(2R)-2-[4-(2-chloro-4-fluoro-phenyl)-2-oxo-chromen-7-yl]oxypropanoyl]piperidine-3-carboxylic acid at the μM of c0, untreated control =100%, read-out: Measured residual activity (cellular ATP content))?
Answer: The activity at 10 µM was 1%.

Question: What about the activity at 30 µM (Homo sapiens, A2780, 72 hours, Olaparib 30 μM, IMT (3S)-1-[(2R)-2-[4-(2-chloro-4-fluoro-phenyl)-2-oxo-chromen-7-yl]oxypropanoyl]piperidine-3-carboxylic acid at the μM of c0, untreated control =100%, read-out: Measured residual activity (cellular ATP content)) of the same molecule?
Answer: The activity at 30 µM was 0%.
